Experimental findings from patent publication US12459921B2, “Isoindoline compound, preparation method, pharmaceutical composition and use thereof” (SHANGHAI INSTITUTE OF MATERIA MEDICA, CHINESE ACADEMY OF …, priority 2018, dated 2025) are described below.

The first test relates to MM.1S cells. The experiment in a line: Inhibitory effect on the proliferation of MM.1S, MTS cell viability test. Format: cell-based. Conditions: Homo sapiens, MM1.S, 168 h, multiple myeloma MM.1S cells, 7 days incubation, read-out: Tumor cell inhibitory activity. The method in brief: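 Viability measured by MTS (OD490 minus OD690 background, 3-4 h) after a 7-day exposure of 20,000 MM.1S cells/well to 5-fold serially diluted compound, 0.2% DMSO final. Inhibition calculated relative to DMSO wells; IC50 curve-fitted, averaged over three repeats.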
As for `Cc1cc(C)c(C2(C#N)CCN(CCCCc3cccc4c3CN(C3CCC(=O)NC3=O)C4=O)CC2)c(C)c1` (stereo not drawn) [Example 261, 1-(4-(2-(2,6-dioxopiperidin-3-yl)-1-oxoisoindolin-4-yl)butyl)-4-sym-trimethylphenylpiperidine-4-carbonitrile], the IC50 lay within 1 to 20 µM.
On the same count and under the same terms, then `Cc1cc(C)c(C2(C#N)CCN(CCCCCc3cccc4c3CN(C3CCC(=O)NC3=O)C4=O)CC2)c(C)c1` (stereo not drawn) [Example 262, 1-(5-(2-(2,6-dioxopiperidin-3-yl)-1-oxoisoindolin-4-yl)pentyl)-4-sym-trimethylphenylpiperidine-4-carbonitrile], with 1 to 20 µM; and `COCCOc1ccc(C2(C#N)CCN(CCCCCc3cccc4c3CN(C3CCC(=O)NC3=O)C4=O)CC2)cc1` (stereo not drawn) [Example 264, 1-(5-(2-(2,6-dioxopiperidin-3-yl)-1-oxoisoindolin-4-yl)pentyl)-4-(4-(2-methoxyethoxy)phenyl)piperidine-4-carbonitrile], with 0.1 to 1 µM; and `COc1ccc(C2(C#N)CCN(CCCCCc3cccc4c3CN(C3CCC(=O)NC3=O)C4=O)CC2)cc1` (stereo not drawn) [Example 265, 1-(5-(2-(2,6-dioxopiperidin-3-yl)-1-oxoisoindolin-4-yl)pentyl)-4-(4-methoxyphenyl)piperidine-4-carbonitrile], with 1 to 20 µM.
Still for that read-out and setting: to `N#CC1(c2c(Cl)cccc2Cl)CCN(CCCCc2cccc3c2CN(C2CCC(=O)NC2=O)C3=O)CC1` (stereo not drawn) [Example 266, 4-(2,6-dichlorophenyl)-1-(4-(2-(2,6-dioxopiperidin-3-yl)-1-oxoisoindoline-4-yl)butyl)piperidine-4-carbonitrile] belongs 0.1 to 1 µM; to `COc1ccc(C2(C#N)CCN(CCCCCc3cccc4c3CN(C3CCC(=O)NC3=O)C4=O)CC2)c(Cl)c1` (stereo not drawn) [Example 267, 4-(2-chloro-4-methoxyphenyl)-1-(5-(2-(2,6-dioxopiperidin-3-yl)-1-oxoisoindoline-4-yl)pentyl)piperidine-4-carbonitrile], 0.1 to 1 µM.
As for `N#Cc1ccc(C2(C#N)CCN(CCCCCc3cccc4c3CN(C3CCC(=O)NC3=O)C4=O)CC2)cc1` (stereo not drawn) [Example 268, 4-(4-cyanophenyl)-1-(5-(2-(2,6-dioxopiperidin-3-yl)-1-oxoisoindoline-4-yl)pentyl)piperidine-4-carbonitrile], the IC50 lay within 0.1 to 1 µM.
The same measure, in the same setting: then `N#CC1(c2cc(Cl)ccc2Cl)CCN(CCCCc2cccc3c2CN(C2CCC(=O)NC2=O)C3=O)CC1` (stereo not drawn) [Example 269, 4-(2,5-dichlorophenyl)-1-(4-(2-(2,6-dioxopiperidin-3-yl)-1-oxoisoindoline-4-yl)butyl)piperidine-4-carbonitrile], with 0.1 to 1 µM.
As to `N#CC1(c2ccc(OC3COC3)cc2)CCN(CCCCCc2cccc3c2CN(C2CCC(=O)NC2=O)C3=O)CC1` (stereo not drawn) [Example 270, 1-(5-(2-(2,6-dioxopiperidin-3-yl)-1-oxoisoindolin-4-yl)pentyl)-4-(4-(oxetan-3-yloxy)phenyl)piperidine-4-carbonitrile], the IC50 fell in the range of 0.1 to 1 µM.
Still for that read-out and setting: then `N#CC1(c2ccc(C(F)(F)F)cc2)CCN(CCCCCc2cccc3c2CN(C2CCC(=O)NC2=O)C3=O)CC1` (stereo not drawn) [Example 271, 1-(5-(2-(2,6-dioxopiperidin-3-yl)-1-oxoisoindolin-4-yl)pentyl)-4-(4-(trifluoromethyl)phenyl)piperidine-4-carbonitrile], with 1 to 20 µM; and `N#CC1(c2ccc(Cl)c(Cl)c2)CCN(CCCCc2cccc3c2CN(C2CCC(=O)NC2=O)C3=O)CC1` (stereo not drawn) [Example 272, 4-(3,4-dichlorophenyl)-1-(4-(2-(2,6-dioxopiperidin-3-yl)-1-oxoisoindoline-4-yl)butyl)piperidine-4-carbonitrile], with 0.1 to 1 µM.

Staying with this test, now noted: multiple myeloma MM.1S cells, 7 days incubation, read-out: Tumor cell inhibitory activity.
`N#CC1(c2ccc(O[C@H]3CCOC3)cc2)CCN(CCCCCc2cccc3c2CN(C2CCC(=O)NC2=O)C3=O)CC1` (stereo partly drawn) [Example 263, 1-(5-(2-(2,6-dioxopiperidin-3-yl)-1-oxoisoindolin-4-yl)pentyl)-4-(4-(((S)-tetrahydrofuran-3-yl)oxy)phenyl)piperidine-4-carbonitrile]: the IC50 is 0.1 to 1 µM.
